For experiment [1], the target named is Human immunodeficiency virus type 1 protease (Human immunodeficiency virus 1, UniProt Q72874). As to the kind of experiment: Tested for inhibitory activity against HIV protease enzyme.
Experiment [2] deals with Human immunodeficiency virus type 1 protease (Human immunodeficiency virus 1) (UniProt Q72874).
Description: Tested for antiviral potency against HIV protease enzyme

The record followed here is ChEMBL document CHEMBL1127743, “Structure-based design of HIV-1 protease inhibitors: replacement of two amides and a 10 pi-aromatic system by a fused bis-tetrahydrofuran” (J Med Chem, 1994).

The structures appear in SMILES notation.

In experiment [1], `CC(C)(C)NC(=O)[C@@H]1C[C@@H]2CCCC[C@@H]2CN1C[C@@H](O)[C@H](Cc1ccccc1)NC(=O)O[C@@H]1CO[C@@H]2OCC[C@@H]21` came in with an IC50 of 6.4 nM. The molecule also showed a 95% effect concentration (IC95) in experiment [2] of 200 nM.
